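Step 1: Grow cells in 96-well plates. Step 2: Expose to compound for 48 hours at 5 concentrations. Step 3: Interpolate endpoints linearly; if unreached, use highest concentration. GI50 = concentration required for 50% inhibition of growth.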 Activity calls are given as the source filed them. Cut-off read from the data, not from the text of the source: active = GI50 up to about 1.1 µM and inactive = higher.
How the values were obtained:
Assay in all cases: NCI anticancer screen, dose series, 48 h
NCI-H460 = system: NCI-H460
PC-3 = system: PC-3
UACC-257 = system: UACC-257
DU-145 = system: DU-145
MDA-MB-435 = system: MDA-MB-435
ACHN = system: ACHN
SK-MEL-2 = system: SK-MEL-2
A498 = system: A498
U-251 = system: U-251
IGROV-1 = system: IGROV-1
UO-31 = system: UO-31
OVCAR-5 = system: OVCAR-5
HOP-62 = system: HOP-62
SF-268 = system: SF-268
786-0 = system: 786-0
RPMI-8226 = system: RPMI-8226
M14 = system: M14
EKVX = system: EKVX
MOLT-4 = system: MOLT-4
CCRF-CEM = system: CCRF-CEM

Measured: GI50

Oc1cc(O)c2c(c1)OC(c1ccc(O)c(O)c1)C(O)C2c1c(O)cc(O)c2c1OC(c1ccc(O)c(O)c1)C(O)C2 (stereo not given)
inactive: NCI-H460 85.1 µM | PC-3 > 100 µM | UACC-257 > 100 µM | DU-145 > 100 µM | MDA-MB-435 > 100 µM | ACHN > 100 µM | SK-MEL-2 > 100 µM | A498 45.5 µM | U-251 > 100 µM | IGROV-1 > 100 µM | UO-31 > 100 µM | OVCAR-5 > 100 µM | HOP-62 > 100 µM | SF-268 > 100 µM | 786-0 > 100 µM | RPMI-8226 > 100 µM | M14 > 100 µM | EKVX > 100 µM

CC(C)=CCOC(=O)C(C)=[N+]=[N-]
inactive: NCI-H460 > 100 µM | PC-3 > 100 µM | UACC-257 > 100 µM | DU-145 > 100 µM | MDA-MB-435 > 100 µM | ACHN > 100 µM | A498 > 100 µM | U-251 > 100 µM | IGROV-1 > 100 µM | UO-31 > 100 µM | OVCAR-5 > 100 µM | HOP-62 > 100 µM | SF-268 > 100 µM | 786-0 > 100 µM | RPMI-8226 > 100 µM | MOLT-4 59 µM | EKVX > 100 µM

CCN1C(c2ccccc2)=CC(c2ccccc2)(C(Cl)(Cl)Cl)C=C1c1ccccc1
inactive: NCI-H460 7.5 µM | PC-3 20.6 µM | UACC-257 4.56 µM | DU-145 14.8 µM | MDA-MB-435 2.74 µM | ACHN 24.9 µM | CCRF-CEM 5.58 µM | A498 17.3 µM | U-251 6.01 µM | IGROV-1 4.7 µM | UO-31 34.6 µM | OVCAR-5 15.1 µM | HOP-62 18.9 µM | SF-268 11.5 µM | 786-0 9.44 µM | RPMI-8226 2.22 µM | MOLT-4 10.9 µM | M14 4.35 µM | EKVX 4.22 µM

Nc1nc(Cl)cc(NCC2(CO)COC2)n1
inactive: NCI-H460 > 100 µM | PC-3 > 100 µM | UACC-257 > 100 µM | DU-145 > 100 µM | MDA-MB-435 > 100 µM | ACHN > 100 µM | CCRF-CEM > 100 µM | SK-MEL-2 > 100 µM | A498 > 100 µM | U-251 > 100 µM | IGROV-1 > 100 µM | UO-31 > 100 µM | OVCAR-5 > 100 µM | HOP-62 > 100 µM | SF-268 > 100 µM | 786-0 > 100 µM | RPMI-8226 > 100 µM | MOLT-4 > 10 µM | EKVX > 100 µM

CCc1nc2cc(F)ccc2[nH]c1=O
inactive: NCI-H460 > 100 µM | PC-3 > 100 µM | UACC-257 > 100 µM | DU-145 65.5 µM | MDA-MB-435 > 100 µM | ACHN > 100 µM | CCRF-CEM > 100 µM | SK-MEL-2 > 100 µM | A498 22.4 µM | U-251 > 100 µM | UO-31 > 100 µM | OVCAR-5 > 100 µM | HOP-62 > 100 µM | SF-268 > 100 µM | 786-0 > 100 µM | RPMI-8226 > 100 µM | MOLT-4 > 100 µM | M14 > 100 µM | EKVX 2.34 µM

COC(=O)[C@@H](NC(=O)N(Cc1ccccc1)C[C@H](CC(C)C)NC(=O)[C@@H](NC(=O)OC(C)(C)C)C(C)C)C(C)C
inactive: NCI-H460 > 100 µM | PC-3 > 100 µM | UACC-257 > 100 µM | DU-145 > 100 µM | MDA-MB-435 > 100 µM | ACHN > 100 µM | SK-MEL-2 > 100 µM | A498 > 100 µM | U-251 > 100 µM | UO-31 > 100 µM | OVCAR-5 > 100 µM | HOP-62 > 100 µM | SF-268 > 100 µM | 786-0 > 100 µM | RPMI-8226 > 100 µM | MOLT-4 > 100 µM | M14 > 100 µM | EKVX > 100 µM
